Source: US6809110B2 (Hoffmann-La Roche Inc., priority 2002, dated 2004)

How the values were obtained:
PPARγ [1] = biological target: T1, PPARγ (Mus musculus, UniProt P37238); assay: Luciferase transcriptional reporter gene assay, BHK21 cells transfected with PPARγ-LBD expression plasmid; format: cell-based; set-up: PPARγ (aa 174 to 476) and PPARα (aa 167 to 469); expressed in transfected cells; host or cells: BHK21 (ATCC CCL10); details: 24 hours incubation
T1 sequence (P37238 204-505): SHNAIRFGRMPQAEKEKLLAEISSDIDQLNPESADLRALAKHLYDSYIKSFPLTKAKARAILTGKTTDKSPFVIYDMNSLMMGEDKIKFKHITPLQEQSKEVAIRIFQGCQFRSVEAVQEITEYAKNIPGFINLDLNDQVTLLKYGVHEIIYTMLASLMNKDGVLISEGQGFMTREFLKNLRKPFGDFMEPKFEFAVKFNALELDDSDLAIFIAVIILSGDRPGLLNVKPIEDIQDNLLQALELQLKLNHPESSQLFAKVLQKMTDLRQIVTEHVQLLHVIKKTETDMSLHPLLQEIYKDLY
Source text: (§1) Full-length cDNA clones for human PPARα and mouse PPARγ were obtained by RT-PCR from human adipose and mouse liver cRNA, respectively, cloned into plasmid vectors and verified by DNA sequencing. (With respect to cloning of PPARα cDNA, see Sher, T. et al. “cDNA doning, chromosomel mapping and functional characterization of the human peroxisome proliferator activated receptor”, Biochemistry 32(21) 5598-5604 (1993); with respect to cloning of PPARγ2 cDNA, see Tontonoy P., et al. “mPPAR gamma 2: tissue-specific regulator of an adipocyte enhancer”, Genes Dev. 8(10) 1224-34 (1994).) Bacterial and mammalian expression vectors were constructed to produce glutathione-s-transferase (GST) and Gal4 DNA binding domain proteins fused to the ligand binding domains (LBD) of PPARγ (aa 174 to 476) and PPARα (aa 167 to 469). To accomplish this, the portions of the cloned sequences encoding the LBDs were amplified from the full-length clones by PCR and then subcloned into the plasmid vectors. Final clones were verified by DNA sequence analysis.
(§2) Baby hamster kidney cells (BHK21 ATCC CCL10) were grown in DMEM medium containing 10% FBS at 37° C. in a 95%02:5%CO2 atmosphere. Cells were seeded in 6 well plates at a density of 10^5 Cells/well and then batch-transfected with either the pPA-PPARγ-LBD or pFA-PPARα-LBD expression plasmids plus a reporter plasmid and an expression plasmid encoding the secretable form of alkaline phosphatase (SEAP) as a normalization control. […] Six hours following transfection, the cells were harvested by trypsinization and seeded in 96 well plates at a density of 10^4 cells/well. After 24 hours to allow attachment of cells, the medium was removed and replaced with 100 ul of phenol red-free medium containing the test substances or control ligands (final DMSO concentration: 0.1%). Following incubation of the cells for 24 hours with substances, 50 ul of the supernatant was recovered and analyzed for SEAP activity (Roche Molecular Biochemicals). The remainder of the supernatant was discarded, 50 ul PBS was added per well followed by one volume of Luciferase Constant-Light Reagent (Roche Molecular Biochemicals) to lyse the cells and initiate the luciferase reaction. Luminescence for both SEAP and luciferase was measured in a Packard TopCount. Luciferase activity was normalized to the SEAP control and transcriptional activation in the presence of a test substance was expressed as fold-activation over cells incubated in the absence of the substance. EC50 values were calculated using the XLfit program (ID Business Solutions Ltd. UK).

PPARα [2] = biological target: T2, PPARα (Homo sapiens, UniProt Q07869); assay: Luciferase transcriptional reporter gene assay, BHK21 cells transfected with pFA-PPARα-LBD; format: cell-based; set-up: PPARα (aa 167 to 469); details: 24 hours incubation
T2 sequence (Q07869 167-468 limits assumed): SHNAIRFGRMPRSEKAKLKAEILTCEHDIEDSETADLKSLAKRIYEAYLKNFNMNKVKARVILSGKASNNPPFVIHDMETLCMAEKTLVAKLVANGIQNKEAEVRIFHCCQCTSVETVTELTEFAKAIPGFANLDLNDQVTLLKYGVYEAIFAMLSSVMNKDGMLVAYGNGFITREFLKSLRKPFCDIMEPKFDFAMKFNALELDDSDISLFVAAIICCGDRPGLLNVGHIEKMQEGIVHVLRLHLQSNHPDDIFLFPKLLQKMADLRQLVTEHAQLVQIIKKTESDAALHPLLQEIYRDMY
Procedure: (§3) Full-length cDNA clones for human PPARα and mouse PPARγ were obtained by RT-PCR from human adipose and mouse liver cRNA, respectively, cloned into plasmid vectors and verified by DNA sequencing. […] To accomplish this, the portions of the cloned sequences encoding the LBDs were amplified from the full-length clones by PCR and then subcloned into the plasmid vectors. Final clones were verified by DNA sequence analysis.
as §2

PPARα [3] = biological target: T2, PPARα; assay: PPARα radioligand binding assay (SPA, GST-PPARα-LBD fusion protein); set-up: PPARγ (aa 174 to 476) and PPARα (aa 167 to 469); made in house; host or cells: E. coli BL21(pLysS); details: SPA beads
Source text: as §3
(§4) Induction, expression, and purification of GST-LBD fusion proteins were performed in E. coli strain BL21(pLysS) cells by standard methods (Ref: Current Protocols in Molecular Biology, Wiley Press, edited by Ausubel et al.).
(§5) PPARα receptor binding was assayed in TKE50 (50 mM Tris-HCl, pH 8, 50 mM KCl, 2 mM EDTA, 0.1 mg/ml fatty acid-free BSA and 10 mM DTT). For each 96 well reaction a 140 ng equivalent of GST-PPARα-LBD fusion protein was bound to 10 ug SPA beads (PharmaciaAmersham) in a final volume of 50 ul by shaking. The resulting slurry was incubated for 1 h at RT and centrifuged for 2 min at 1300 g. The supernatant containing unbound protein was removed and the semidry pellet containing the recptor-coated beads was resolved in 50 ul of TKE. For radioligand binding e.g. 10000 dpm of 2(S)-(2-benzoyl-phenylamino)-3-{4-[1,1-ditritio-2-(5-methyl-2-phenyl-oxazol-4-yl)-ethoxy]-phenyl}-propionic acid or 2,3-ditritio-2(S)-methoxy-3-(4-(2-(5-methyl-2-phenyl-oxazol-4-yl)-ethoxy]-benzo[b]thiophen-7-yl}-propionic acid in 50 ul were added, the reaction incubated at RT for 1 h and scintillation proximity counting performed. All binding assays were performed in 96 well plates and the amount of bound ligand measured on a Packard TopCount using OptiPlates (Packard). Nonspecific binding was determined in the presence of 10^−4 M unlabelled compound. Dose response curves were done in triplicates within a range of concentration from 10^−10 M to 10^−4 M.

PPARγ [4] = biological target: T1, PPARγ; assay: PPARγ radioligand binding assay (SPA, GST-PPARγ-LBD fusion protein); set-up: PPARγ (aa 174 to 476); details: SPA beads
Source text: as §1, §4
as §5, with “PPARγ receptor” for “PPARα receptor”, “reaction an” for “reaction a”, “of GST-PPARγ-LBD” for “of GST-PPARα-LBD”, “beads (PharmaciaArnersham)” for “beads (PharmaciaAmersham)”, “dpm” for “dpm of”, “2(S)-(2-benzoyl-phenylamino)-3-{4-[1,1-ditritio-2-(5-methyl-2-phenyl-oxazol-4-yl)-ethoxy]-phenyl}-propionic” for “2(S)-(2-benzoyl-phenylamino)-3-{4-[1,1-ditritio-2-(5-methyl-2-phenyl-oxazol-4-yl)-ethoxy]-phenyl}-propionic acid or 2,3-ditritio-2(S)-methoxy-3-(4-(2-(5-methyl-2-phenyl-oxazol-4-yl)-ethoxy]-benzo[b]thiophen-7-yl}-propionic”

PPARα [5] = biological target: T2, PPARα; assay: Luciferase transcriptional reporter gene assay, BHK21 cells transfected with pFA-PPARα-LBD; format: cell-based; details: 24 hours incubation
Procedure: as §3
Baby hamster kidney cells (BHK21 ATCC CCL10) were grown in DMEM medium containing 10% FBS at 37° C. in a 95%02:5%CO2 atmosphere. Cells were seeded in 6 well plates at a density of 10^5 Cells/well and then batch-transfected with either the pPA-PPARγ-LBD or pFA-PPARα-LBD expression plasmids plus a reporter plasmid and an expression plasmid encoding the secretable form of alkaline phosphatase (SEAP) as a normalization control. […] Following incubation of the cells for 24 hours with substances, 50 ul of the supernatant was recovered and analyzed for SEAP activity (Roche Molecular Biochemicals). […] Luminescence for both SEAP and luciferase was measured in a Packard TopCount. Luciferase activity was normalized to the SEAP control and transcriptional activation in the presence of a test substance was expressed as fold-activation over cells incubated in the absence of the substance. EC50 values were calculated using the XLfit program (ID Business Solutions Ltd. UK).

PPARγ [6] = biological target: T1, PPARγ; assay: PPARγ radioligand binding assay (SPA, GST-PPARγ-LBD fusion protein); details: SPA beads
Source text: Full-length cDNA clones for human PPARα and mouse PPARγ were obtained by RT-PCR from human adipose and mouse liver cRNA, respectively, cloned into plasmid vectors and verified by DNA sequencing. (With respect to cloning of PPARα cDNA, see Sher, T. et al. “cDNA doning, chromosomel mapping and functional characterization of the human peroxisome proliferator activated receptor”, Biochemistry 32(21) 5598-5604 (1993); with respect to cloning of PPARγ2 cDNA, see Tontonoy P., et al. “mPPAR gamma 2: tissue-specific regulator of an adipocyte enhancer”, Genes Dev. 8(10) 1224-34 (1994).) Bacterial and mammalian expression vectors were constructed to produce glutathione-s-transferase (GST) and Gal4 DNA binding domain proteins fused to the ligand binding domains (LBD) of PPARγ (aa 174 to 476) and PPARα (aa 167 to 469). To accomplish this, the portions of the cloned sequences encoding the LBDs were amplified from the full-length clones by PCR and then subcloned into the plasmid vectors. Final clones were verified by DNA sequence analysis. […]
PPARγ receptor binding was assayed in TKE50 (50 mM Tris-HCl, pH 8, 50 mM KCl, 2 mM EDTA, 0.1 mg/ml fatty acid-free BSA and 10 mM DTT). […] All binding assays were performed in 96 well plates and the amount of bound ligand measured on a Packard TopCount using OptiPlates (Packard). Nonspecific binding was determined in the presence of 10^−4 M unlabelled compound. […]

| Compound | EC50 (PPARγ [1]) | EC50 (PPARα [2]) | IC50 (PPARα [3]) | IC50 (PPARγ [4]) | EC50 (PPARα [5]) | IC50 (PPARγ [6]) | melting point |
| --- | --- | --- | --- | --- | --- | --- | --- |
| CCOC(Cc1ccc(OCc2csc(-c3ccc(C(C)C)cc3)n2)c(C)c1)C(=O)O (racemic) [Example 5, [rac]-2-Ethoxy-3-{4-[2-(4-isopropyl-phenyl)-thiazol-4-ylmethoxy]-3-methyl-phenyl}-propionic acid] | 389 nM | 400 nM | 133 nM | 96 nM |  |  |  |
| CCOC(Cc1ccc(OCc2csc(-c3ccc(Cl)cc3)n2)cc1C)C(=O)O (racemic) [Example 14, [rac]-3-{4-[2-(4-chloro-phenyl)-thiazol-4-ylmethoxy]-2-methyl-phenyl}-2-ethoxy-propionic acid] | 608 nM | 77 nM | 109 nM | 457 nM |  |  |  |
| CCOC(Cc1ccc(OCCc2csc(-c3ccc(C(F)(F)F)cc3)n2)c(F)c1)C(=O)O (racemic) [Example 25, [rac]-2-Ethoxy-3-(3-fluoro-4-{2-[2-(4-trifluoromethyl-phenyl)-thiazol-4-yl]-ethoxy}-phenyl)-propionic acid] | 508 nM | 116 nM | 370 nM | 535 nM |  |  |  |
| CCOC(Cc1ccc(OCCCc2csc(-c3ccc(C(C)C)cc3)n2)c(F)c1)C(=O)O (racemic) [Example 43, [rac]-2-Ethoxy-3-(3-fluoro-4-{3-[2-(4-isopropyl-phenyl)-thiazol-4-yl]-propoxy}-phenyl)-propionic acid] | 543 nM | 2110 nM | 50 nM | 52 nM |  |  |  |
| CCOC(Cc1ccc(OCCc2nc(-c3ccc(OC(F)(F)F)cc3)sc2C)c(C)c1)C(=O)O (racemic) [Example 60, [rac]-2-ethoxy-3-(3-methyl-4-{2-[5-methyl-2-(4-trifluoromethoxy-phenyl)-thiazol-4-yl]-ethoxy}-phenyl)-propionic acid] | 411 nM | 748 nM | 37 nM | 42 nM |  |  |  |
| CCOC(Cc1ccc(OCCc2nc(-c3cc(OC)cc(OC)c3)sc2C)c(OC)c1)C(=O)O (racemic) [Example 64] | 281 nM |  | 95 nM |  | 513 nM | 84 nM |  |
| CCOC(Cc1ccc(OCc2csc(-c3ccc(Cl)cc3)n2)c2ccoc12)C(=O)O (racemic) [Example 95] | 1580 nM |  | 114 nM |  | 54 nM | 925 nM |  |
| CCOC(Cc1ccc(OCCCc2nc(-c3ccc(C(C)(C)C)cc3)sc2C)cc1C)C(=O)O (racemic) [Example 102, [rac]-3-(4-{3-[2-(4-tert-Butyl-phenyl)-5-methyl-thiazol-4-yl]-propoxy}-2-methyl-phenyl)-2-ethoxy-propionic acid] | 42 nM | 215 nM | 15 nM | 20 nM |  |  |  |
| CCOC(Cc1ccc(OCc2sc(-c3ccc(C(F)(F)F)cc3)nc2C)c2ccsc12)C(=O)O (racemic) [Example 139, [rac]-2-Ethoxy-3-{4-[4-methyl-2-(4-trifluoromethyl-phenyl)-thiazol-5-ylmethoxy]-benzo[b]thiophen-7-yl}-propionic acid] |  |  |  |  |  |  | 178 to 179 °C |
| CCO[C@@H](Cc1ccc(OCc2csc(-c3cccc(Cl)c3)n2)cc1C)C(=O)O [Example 19, (2S)-3-{4-[2-(3-Chloro-phenyl)-thiazol-4-ylmethoxy]-2-methyl-phenyl}-2-ethoxy-propionic acid] | 60 nM | 71 nM | 89 nM | 179 nM |  |  |  |
| CCO[C@@H](Cc1ccc(OCc2csc(-c3ccc(Cl)cc3)n2)cc1C)C(=O)O [Example 20, (2S)-3-{4-[2-(4-Chloro-phenyl)-thiazol-4-ylmethoxy]-2-methyl-phenyl}-2-ethoxy-propionic acid] | 209 nM | 27 nM | 24 nM | 738 nM |  |  |  |
